Results: patent US6737383B1, “Herbicidal oxadiazolidines” (priority 1999, dated 2004)

Key:
common poppy = test: Test E common poppy; type: in vivo, Papaver rhoeas; conditions: Postemergence
Protocol: (§1) Compounds evaluated in this test were formulated in a non-phytotoxic solvent mixture which included a surfactant and applied to plants that were in the 1- to 4-leaf stage (postemergence application). A mixture of sandy loam soil and greenhouse potting mix in a 60:40 ratio was used for the postemergence test.
(§2) Plantings of these crops and weed species were adjusted to produce plants of appropriate size for the postemergence test. All plant species were grown using normal greenhouse practices. Crop and weed species include annual bluegrass (Poa annua), blackgrass (Alopecurus myosuroides), black nightshade (Solanum nigra), chickweed (Stellaria media), common poppy (Papaver rhoeas), deadnettle (Lamium amplexicaule), downy brome (Bromus tectorum), field violet (Viola arvensis), galium (Galium aparine), green foxtail (Setaria viridis), Italian ryegrass (Lolium multiflorum), jointed goatgrass (Aegilops cylindrica), kochia (Kochia scoparia), lambsquarters (Chenopodium album), littleseed canarygrass (Phalaris minor), rape (Brassica napus), redroot pigweed (Amaranthus retroflexus), Russian thistle (Salsola kali), scentless chamomile (Matricaria inodora), spring barley (Hordeum vulgare), sugar beet (Beta vulgaris), sunflower (Helianthus annuus), ivyleaf speedwell (Veronica hederaefolia), spring wheat (Triticum aestivum), winter wheat (Triticum aestivum), wild buckwheat (Polygonum convolvulus), wild mustard (Sinapis arvensis), wild oat (Avena fatua), windgrass (Apera spica-venti) and winter barley (Hordeum vulgare).
(§3) Treated plants and untreated controls were maintained in a greenhouse for approximately 21 to 28 days, after which all treated plants were compared to untreated controls and visually evaluated. […] A dash response (-) means no test result.

fall panicum = test: Test C postemergence fall panicum; type: in vivo, Panicum dichotomiflorum; conditions: 0 to 100 scale, 0 no effect, 100 complete control
In short: (§4)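 Visual ratings on a 0 to 100 scale, where 0 means no effect and 100 complete control, were made versus untreated controls roughly 14 to 21 days after postemergence treatment. Test compounds were formulated in a non-phytotoxic solvent mixture containing a surfactant.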

deadnettle = test: Test E deadnettle; type: in vivo, Lamium amplexicaule; conditions: Preemergence
ivyleaf morningglory = test: Test C postemergence ivyleaf morningglory; type: in vivo, Ipomoea hederacea; conditions: 0 to 100 scale, 0 no effect, 100 complete control
In short: as §4

spring wheat = test: Test E spring wheat; type: in vivo, Triticum aestivum; conditions: Preemergence
arrowleaf sida = test: Test C postemergence arrowleaf sida; type: in vivo, Sida rhombifolia; conditions: 0 to 100 scale, 0 no effect, 100 complete control
In short: as §4

redroot pigweed = test: Test E redroot pigweed; type: in vivo, Amaranthus retroflexus; conditions: Postemergence
Protocol: as §1, §2, §3

black nightshade [1] = test: Test E black nightshade; type: in vivo, Solanum nigra; conditions: Preemergence
field violet = test: Test E field violet; type: in vivo, Viola arvensis; conditions: Preemergence
Russian thistle = test: Test E Russian thistle; type: in vivo, Salsola kali; conditions: Postemergence
In short: (§5)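 Visual evaluation versus untreated controls after about 21 to 28 days in the greenhouse. Compound was in a surfactant-containing non-phytotoxic solvent; postemergence plants were treated at the 1- to 4-leaf stage, grown in a 60:40 sandy loam and potting mix blend.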

barnyardgrass = test: Test C postemergence barnyardgrass; type: in vivo, Echinochloa crus-galli; conditions: 0 to 100 scale, 0 no effect, 100 complete control
Protocol: (§6) Compounds evaluated in this test were formulated in a non-phytotoxic solvent mixture which included a surfactant and applied to plants that were grown for various periods of time before treatment (postemergence application). A mixture of sandy loam soil and greenhouse potting mix in a 60:40 ratio was used for the postemergence test.
(§7) Plantings of these crops and weed species were adjusted to produce plants of appropriate size for the postemergence test. All plant species were grown using normal greenhouse practices. Crop and weed species include arrowleaf sida (Sida rhombifolia), barnyardgrass (Echinochloa crus-galli), cocklebur (Xanthium strumarium), common ragweed (Ambrosia elatior), corn (Zea mays), cotton (Gossypium hirsutum), eastern black nightshade (Solanum ptycanthum), fall panicum (Panicum dichotomiflorum), field bindweed (Convolvulus arvensis), giant foxtail (Setaria faberii), hairy beggarticks (Bidens pilosa), ivyleaf morningglory (Ipomoea hederacea), johnsongrass (Sorghum halepense), ladysthumb smartweed (Polygonum persicaria), lambsquarters (Chenopodium album), large crabgrass (Digitaria sanguinalis), purple nutsedge (Cyperus rotundus), redroot pigweed (Amaranthus retroflexus), soybean (Glycine max), surinam grass (Brachiaria decumbens), velvetleaf (Abutilon theophrasti) and wild poinsettia (Euphorbia heterophylla).
(§8) Treated plants and untreated controls were maintained in a greenhouse for approximately 14, to 21 days, after which all treated plants were compared to untreated controls and visually evaluated. Plant response ratings, summarized in Table C, were based upon a 0 to 100 scale where 0 was no effect and 100 was complete control. A dash response (−) means no test result.

green foxtail = test: Test E green foxtail; type: in vivo, Setaria viridis; conditions: Postemergence
In short: as §5

blackgrass = test: Test E blackgrass; type: in vivo, Alopecurus myosuroides; conditions: Postemergence
In short: as §5

cotton = test: Test C postemergence cotton; type: in vivo, Gossypium hirsutum; conditions: 0 to 100 scale, 0 no effect, 100 complete control
Protocol: as §6, §7, §8

spring barley = test: Test E spring barley; type: in vivo, Hordeum vulgare; conditions: Postemergence
Protocol: as §1, §2, §3

wild poinsettia = test: Test C postemergence wild poinsettia; type: in vivo, Euphorbia heterophylla; conditions: 0 to 100 scale, 0 no effect, 100 complete control
In short: as §4

black nightshade [2] = test: Test E black nightshade; type: in vivo, Solanum nigra; conditions: Postemergence
In short: as §5

[3] = Rate 250 g/ha, 0 to 100 scale (0 no effect, 100 complete control)
[4] = Rate 62 g/ha, 0 to 100 scale, 0 no effect, 100 complete control
[5] = Rate 125 g/ha, 0 to 100 scale (0 no effect, 100 complete control)

## CCn1c(=O)on(C(=O)N(c2ccc(F)cc2)C(C)C)c1=O [Compound 107]
Common poppy; Rate 62 g/ha, 0 to 100 scale
  Plant response rating, Common poppy: 0
Common poppy; Rate 125 g/ha, 0 to 100 scale
  Plant response rating, Comnion poppy: 0
Common poppy; [3]
  Plant response rating, Common poppy: 5
Fall panicum; Rate 140 g/ha
  Plant response rating Fall panicum: 50
Fall panicum; Rate 280 g/ha
  Plant response rating Fall panicum: 60
Fall panicum; Rate 560 g/ha
  Plant response rating Fall panicum: 85
Fall panicum; Rate 1120 g/ha
  Plant response rating Fall panicum: 85
deadnettle; [4]
  Plant response rating, Deadnettle: 50
deadnettle; [5]
  Plant response rating, Deadnettle: 60
deadnettle; Rate 250 g/ha, 0 to 100 scale
  Plant response rating, Deadnettle: 85
Ivyleaf morningglory; Rate 140 g/ha
  Plant response rating I. morningglory: 10
Ivyleaf morningglory; Rate 280 g/ha
  Plant response rating I. morningglory: 30
Ivyleaf morningglory; Rate 560 g/ha
  Plant response rating I. morningglory: 30
Ivyleaf morningglory; Rate 1120 g/ha
  Plant response rating I. morningglory: 95
Spring wheat; [4]
  Plant response rating, Spring Wheat: 60
Spring wheat; [5]
  Plant response rating, Spring Wheat: 75
Spring wheat; Rate 250 g/ha, 0 to 100 scale
  Plant response rating, Spring Wheat: 85
Arrowleaf sida; Rate 280 g/ha
  Plant response rating Arrowleaf sida: 30
Arrowleaf sida; Rate 560 g/ha
  Plant response rating Arrowleaf sida: 75
Arrowleaf sida; Rate 1120 g/ha
  Plant response rating Arrowleaf sida: 85
Redroot pigweed; Rate 62 g/ha, 0 to 100 scale
  Plant response rating, Redroot pigweed: 20
Redroot pigweed; Rate 125 g/ha, 0 to 100 scale
  Plant response rating, Redroot pigweed: 10
Redroot pigweed; [3]
  Plant response rating, Redroot pigweed: 20
Black nightshade [1]; [4]
  Plant response rating, Blk nightshade: 70
Black nightshade [1]; [5]
  Plant response rating, Blk nightshade: 95
Black nightshade [1]; Rate 250 g/ha, 0 to 100 scale
  Plant response rating, Blk nightshade: 95
Field violet; [4]
  Plant response rating, Field violet: 70
Field violet; [5]
  Plant response rating, Field violet: 30
Field violet; Rate 250 g/ha, 0 to 100 scale
  Plant response rating, Field violet: 20
Russian thistle; Rate 62 g/ha, 0 to 100 scale
  Plant response rating, Russian thistle: 0
Russian thistle; Rate 125 g/ha, 0 to 100 scale
  Plant response rating, Russian thistle: 0
Russian thistle; [3]
  Plant response rating, Russian thistle: 0
barnyardgrass; Rate 140 g/ha
  Plant response rating, Barnyardgrass: 70
barnyardgrass; Rate 280 g/ha
  Plant response rating, Barnyardgrass: 85
barnyardgrass; Rate 560 g/ha
  Plant response rating, Barnyardgrass: 90
barnyardgrass; Rate 1120 g/ha
  Plant response rating, Barnyardgrass: 95
Green foxtail; Rate 62 g/ha, 0 to 100 scale
  Plant response rating, Green foxtail: 20
Green foxtail; Rate 125 g/ha, 0 to 100 scale
  Plant response rating, Green foxtail: 30
Green foxtail; [3]
  Plant response rating, Green foxtail: 85
blackgrass; Rate 62 g/ha, 0 to 100 scale
  Plant response rating, Blackgrass: 5
blackgrass; Rate 125 g/ha, 0 to 100 scale
  Plant response rating, Blackgrass: 80
blackgrass; [3]
  Plant response rating, Blackgrass: 85
cotton; Rate 140 g/ha
  Plant response rating Cotton: 45
cotton; Rate 280 g/ha
  Plant response rating Cotton: 60
cotton; Rate 560 g/ha
  Plant response rating Cotton: 80
cotton; Rate 1120 g/ha
  Plant response rating Cotton: 90
Spring barley; Rate 62 g/ha, 0 to 100 scale
  Plant response rating, Spring Barley: 20
Spring barley; Rate 125 g/ha, 0 to 100 scale
  Plant response rating, Spring Barley: 0
Spring barley; [3]
  Plant response rating, Spring Barley: 30
Wild poinsettia; Rate 140 g/ha
  Plant response rating Wild poinsettia: 0
Wild poinsettia; Rate 280 g/ha
  Plant response rating Wild poinsettia: 15
Wild poinsettia; Rate 560 g/ha
  Plant response rating Wild poinsettia: 40
Wild poinsettia; Rate 1120 g/ha
  Plant response rating Wild poinsettia: 80
Black nightshade [2]; Rate 62 g/ha, 0 to 100 scale
  Plant response rating, Blk nightshade: 10
Black nightshade [2]; Rate 125 g/ha, 0 to 100 scale
  Plant response rating, Blk nightshade: 30
Black nightshade [2]; [3]
  Plant response rating, Blk nightshade: 60
